Publication PMC6009932, “Small molecule purine and pseudopurine derivatives: synthesis, cytostatic evaluations and investigation of growth inhibitory effect in non-small cell lung cancer A549” (Journal of Enzyme Inhibition and Medicinal Chemistry, 2017)

How the values were obtained:
A549 (lung carcinoma) = test: Proliferation assay (MTT, 72 h) on A549; format: cell-based; conditions: Homo sapiens, A549 lung adenocarcinoma
Experimental: (§1) Human carcinoma cell lines A549 (lung carcinoma), HeLa (cervical carcinoma), SW620 (colorectal adenocarcinoma, metastatic), and CFPAC-1 (pancreatic cancer, derived from metastatic: liver), normal human lung (WI38) and foreskin (HFF-1) fibroblasts were obtained from the American Type Culture Collection (ATCC). Cells were cultured in humidified atmosphere at 37 °C with 5% CO2. As growth medium, Dulbecco’s modified Eagle medium (DMEM) was used with the addition of foetal bovine serum (10%), L-glutamine (2 mM) and antibiotics: streptomycin (100 µg/ml) and penicillin (100 U/ml).
(§2) Cells were seeded onto 96-well microtiter plates at a seeding density of 3000 cells/well for carcinoma cell lines, and 5000 cells/well for normal human fibroblasts. The next day, cells were treated with test agents in five different concentrations (0.01–100 µM) and further incubated for 72 h. […] Following 72 h incubation, the MTT assay was performed and measured absorbances were transformed into percentage of cell growth as described previously. Results were obtained from three independent experiments. IC50 values were calculated using linear regression analysis and results were statistically analysed by ANOVA, Tukey post-hoc test (p < .05).

[1] = tested on: CFPAC-1 (ductal pancreatic adenocarcinoma); test: Proliferation assay (MTT, 72 h) on CFPAC-1; format: cell-based; conditions: Homo sapiens
Experimental: as §1, §2

[2] = tested on: HeLa (cervical carcinoma); test: Proliferation assay (MTT, 72 h) on HeLa; format: cell-based; conditions: Homo sapiens
Experimental: as §1, §2

[3] = tested on: SW620 (colorectal adenocarcinoma, metastatic); test: Proliferation assay (MTT, 72 h) on SW620; format: cell-based; conditions: Homo sapiens, SW-620
Experimental: as §1, §2

[4] = tested on: WI38 normal human lung fibroblasts; test: Proliferation assay (MTT, 72 h) on normal lung fibroblasts WI38; format: cell-based; conditions: WI-38, read-out: IC50 WI38/HFF-1 (WI38)
Experimental: as §1, §2

A549 cells = test: Annexin V-FITC assay for apoptosis detection; format: cell-based, human
Experimental: Staining of the cells was performed by Annexin-V-FITC Staining kit (Santa Cruz Biotechnology, Dallas, TX) according to the manufacturer’s instructions. Cells were visualised by fluorescent microscope (Olympus) at magnification of 40×.
Further biological evaluations of compound 12b which was identified as a candidate were performed in order to investigate whether its antiproliferative effect in non-small cell lung cancer (A549) could be associated with induction of apoptosis.

GPLD1 = test: Western blot analysis of GPLD1 in A549 cells; format: cell-based, human; conditions: A549, 2 × IC50, 48 h
Experimental: (§3) Cells were seeded in 6-well plates in the concentration depending on tested cell line varying from 1 × 10^5 to 2 × 10^5 cells/well. […] Following treatment, cells were lysed with RIPA buffer supplemented with protease and phosphatase inhibitors (Roche). Total proteins (50 µg) were resolved on 10 or 12% polyacrilamide gels, depending on protein size, and transferred onto PVDF membranes that were blocked for 1 h with either 4% BSA or 5% non-fat milk prepared in tris-buffered saline (TBST). Membranes were probed with primary antibodies against GPLD1 (Abcam), PDGFRβ, p-IGF-1Rβ, p-p38 MAPK, and p-NF-κB-p65 from cell signalling technology at 4 °C overnight. The next day, membranes were washed in TBST and probed with horseradish peroxidase-conjugated secondary antibodies goat anti-mouse (Santa Cruz Biotechnology) or goat anti-rabbit (Santa Cruz Biotechnology). Protein bands were visualised using chemiluminescence substrate and ImageQuant LAS 500 (GE Healthcare, Chicago, IL). Following visualisation, protein band density was analysed by Quantity One 1-D Analysis Software (Bio-Rad, Hercules, CA).

PDGFRβ = test: Western blot analysis of PDGFR in A549 cells; format: cell-based, human; conditions: A549, 2 × IC50, 48 h
Experimental: as §3

p-IGF-1Rβ = test: Western blot analysis of p-IGF-1Rβ in A549 cells; format: cell-based, human; conditions: A549, 2 × IC50, 48 h
Experimental: as §3

p-NF-κB-p65 = test: Western blot analysis of p-NF-κB-p65 in A549 cells; format: cell-based, human; conditions: A549, 2 × IC50, 48 h
Experimental: as §3

p-p38 MAPK = test: Western blot analysis of p-p38 MAPK in A549 cells; format: cell-based, human; conditions: A549, 2 × IC50, 48 h
Experimental: as §3

[5] = tested on: HFF-1 normal human foreskin fibroblasts; test: Proliferation assay (MTT, 72 h) on normal foreskin fibroblasts HFF-1; format: cell-based; conditions: compounds 11a–e tested in HFF-1 cell line, read-out: IC50 WI38/HFF-1 (HFF-1)
Experimental: as §1, §2

[6] = A549, 48 h, 2 × IC50, versus control

Structure (SMILES)	IC50 (A549 (lung carcinoma)) [µM]	IC50 [1] [µM]	IC50 [2] [µM]	IC50 [3] [µM]	melting point [°C]	IC50 [4] [µM]	Secondary necrotic cells (A549 cells; A549, 48 h, 2 × IC50, PI+) [%]	Late apoptotic/Primary necrotic cells (A549 cells; A549, 48 h, 2 × IC50, PI+/Ann V+) [%]	Early apoptotic cells (A549 cells; A549, 48 h, 2 × IC50, PI−/Ann V+) [%]	Viable cells (A549 cells; A549, 48 h, 2 × IC50, PI−/Ann V−) [%]	increase in early apoptotic cell population (A549 cells; [6]) [%]	increase in late apoptotic/necrotic cell population (A549 cells; [6]) [%]	induction of apoptosis (A549 cells; A549 cells)	expression level of GPLD1 protein (GPLD1)	expression of PDGFR (PDGFRβ)	expression of p-IGF-1Rβ (p-IGF-1Rβ)	p-NF-κB-p65 subunit expression level (p-NF-κB-p65)	expression level of p-p38 MAP kinase (p-p38 MAPK)	IC50 [5] [µM]
Clc1ccc(-n2cc(Cn3cnc4ccccc43)nn2)cc1 [Compound 12b, 1-{[1-(4-chlorophenyl)-1H-1,2,3-triazol-4-yl]methyl}-1H-benzo[d]imidazole]	0.79	52.6	42.2	91.2	–	38.1	2.39	19.76	31.14	46.71	30.62	19.76	induced apoptosis	dramatically reduced	downregulated	downregulated	significant reduction	marked decline	–
FC(F)(F)c1ccc(-n2cc(Cn3ccc4ccccc43)nn2)cc1 [Compound 11c, 1-{[1-(4-(Trifluoromethyl)phenyl)-1H-1,2,3-triazol-4-yl]methyl}-1H-indole]	> 100	> 100	> 100	> 100	–	–	–	–	–	–	–	–	–	–	–	–	–	–	> 100
Clc1ccc(-n2cc(Cn3ccc4ccccc43)nn2)cc1 [Compound 11b, 1-{[1-(4-Chlorophenyl)-1H-1,2,3-triazol-4-yl]methyl}-1H-indole]	> 100	> 100	> 100	> 100	–	–	–	–	–	–	–	–	–	–	–	–	–	–	> 100
O=c1cc(Cn2cc(Cn3ccc4ccccc43)nn2)c2ccc(O)cc2o1 [Compound 11e, 4-{[4-((1H-Indol-1-yl)methyl)-1H-1,2,3-triazol-1-yl]methyl}-7-hydroxy-2 H-chromen-2-one]	75.4	> 100	83	68.5	155 to 158	–	–	–	–	–	–	–	–	–	–	–	–	–	40

Continued by falling IC50 (A549 (lung carcinoma)), values first:

IC50 (A549 (lung carcinoma)) [µM]	IC50 [1] [µM]	IC50 [2] [µM]	IC50 [3] [µM]	melting point [°C]	Structure (SMILES)	IC50 [4] [µM]	Secondary necrotic cells (A549 cells; A549, 48 h, 2 × IC50, PI+) [%]	Late apoptotic/Primary necrotic cells (A549 cells; A549, 48 h, 2 × IC50, PI+/Ann V+) [%]	Early apoptotic cells (A549 cells; A549, 48 h, 2 × IC50, PI−/Ann V+) [%]	Viable cells (A549 cells; A549, 48 h, 2 × IC50, PI−/Ann V−) [%]	increase in early apoptotic cell population (A549 cells; [6]) [%]	increase in late apoptotic/necrotic cell population (A549 cells; [6]) [%]	induction of apoptosis (A549 cells; A549 cells)	expression level of GPLD1 protein (GPLD1)	expression of PDGFR (PDGFRβ)	expression of p-IGF-1Rβ (p-IGF-1Rβ)	p-NF-κB-p65 subunit expression level (p-NF-κB-p65)	expression level of p-p38 MAP kinase (p-p38 MAPK)	IC50 [5] [µM]
69.2	36.3	33.6	73.5	202 to 204	O=c1cc(Cn2cc(Cn3ccc4c(Cl)ncnc43)nn2)c2ccc(O)cc2o1 [Compound 8e, 4-{[4-((4-Chloro-7H-pyrrolo[2,3-d]pyrimidin-7-yl)methyl)-1H-1,2,3-triazol-1-yl]methyl}-7-hydroxy-2H-chromen-2-one]	39.9	–	–	–	–	–	–	–	–	–	–	–	–	–
69	35.2	83.3	65.5	112 to 114	Fc1ccccc1-n1cc(Cn2ccc3c(Cl)ncnc32)nn1 [Compound 8d, 4-Chloro-7-{[1-(2-fluorophenyl)-1H-1,2,3-triazol-4-yl]methyl}-7H-pyrrolo[2,3-d]pyrimidine]	22.5	–	–	–	–	–	–	–	–	–	–	–	–	–
51.3	85.6	71.2	44.8	–	Fc1ccccc1-n1cc(Cn2ccc3ccccc32)nn1 [Compound 11d, 1-{[1-(2-Fluorophenyl)-1H-1,2,3-triazol-4-yl]methyl}-1H-indole]	–	–	–	–	–	–	–	–	–	–	–	–	–	40.4
44	> 100	> 100	43.3	–	Fc1ccc(-n2cc(Cn3ccc4ccccc43)nn2)cc1 [Compound 11a, 1-{[1-(4-Fluorophenyl)-1H-1,2,3-triazol-4-yl]methyl}-1H-indole]	–	–	–	–	–	–	–	–	–	–	–	–	–	> 100
